According to patent publication US20250205155A1, “FORMULATIONS COMPRISING MELPHALAN FLUFENAMIDE AND CYCLODEXTRIN” (Oncopeptides Innovation AB, priority 2022, published 2025):
Where “and” joins values, the source holds several entries; their conditions need not be identical. Equal entries are not always repeated. Structures can show the parent of a compound that is named as a salt. Where two headings read alike, the source gives them in different places.

Tests used:
[1] = Stability of Ex 2 in glucose or saline with and without 16 mg/mL HPγCD at room temperature; type: physicochemical; conditions: 5 hours at room temperature
Method: Stock solutions of 16 mg/mL hydroxypropyl-γ-cyclodextrin in 5% glucose and in 0.9% saline were prepared. 20 mg/mL (free base) solution of the compound of Example 2 in propylene glycol was prepared.
To a 2 mL clear vial was added the amounts of each stock solution according to the Table 4 below.
The samples were stored at room temperature and analysed after 0, 2, 5 and 23 h on HPLC. The degradation of the compound was reported relative to the area under the curve at time=0 h. The percentage figure in Table 5 below represents the proportion of remaining compound of Ex 2.
(§1) Analytical HPLC was carried out on an Agilent Series 1100 system using a Kinetex XB C18 (2.6 μm, 3.0×50 mm) column with 0.1% TFA in MiliQ H2O/MeCN as mobile phase (flow 1 mL/min). 5-97% MeCN in 3 minutes.

[2] = Ex 1 lyophilised with HPγCD: reconstitution and stability at infusion concentration; type: physicochemical; conditions: for reconstitution concentration: lyophilised with HPγCD (1:67 w/w), 0.9% saline, fully dissolved
Method: The weight ratio (w/w) of melphalan flufenamide (free base):hydroxypropyl-γ-cyclodextrin was 1:67. The mixture was stirred for 30 min at room temperature before being lyophilized overnight. A white, fluffy lyo-cake was formed. The lyophilized material was kept refrigerated for 5 months. 0.9% saline (9000 μL) was added to the lyo-cake and the mixture was vortexed for 1 min. The material was fully dissolved to make a 3.0 mg/mL solution. […] The reconstituted solution was diluted to 0.10 mg/mL in 0.9% saline. […] The stability of the approved drug product […] at 0.10 mg/mL in 0.9% saline after 17 hours at room temperature is approximately 56%.

[3] = Stability of melphalan flufenamide infusion solution with and without γCD at 5° C.; type: physicochemical; conditions: for decrease of melphalan flufenamide content: infusion solution not comprising γCD
Method: A control infusion solution containing no γCD was prepared in accordance with the following method, which is in line with the protocol set out in the U.S. Prescribing Information (USPI) for PEPAXTO® dated February 2021:
An infusion solution containing γCD was prepared according to steps 1 to 5 above, except that step 2 included a step of adding 320 mg of γCD into each vial (i.e. 1:16 ratio w/w of melphalan flufenamide to γCD) followed by mixing the powders by vortex. Steps 3 to 5 were then carried out as set out above.
Immediately after preparation of each infusion solution, 4 mL was withdrawn from the infusion bag and the melphalan flufenamide content was determined by HPLC analysis. These samples represent each infusion solution at the start of the stability study (i.e. the to samples). Each infusion bag was then stored at 5° C. […] The melphalan flufenamide content of each sample was determined by HPLC analysis.
The melphalan flufenamide content of each sample of infusion solution was determined by HPLC analysis using the method described in Example 5.

[4] = type: physicochemical
Method: The samples were analysed after 0 h and the samples were stored at room temperature or in the fridge and analysed after 18 h. The remaining API (i.e. the remaining melphalan flufenamide) was reported relative to the area under the curve at t=0 h.
as §1

[5] = Stability of melphalan flufenamide drug product in γCD 5% glucose solutions at RT; type: physicochemical
Method: A stock solution of 23 mg/mL γCD 5% glucose solution (w/v in water) was used to prepare working solutions containing 1 mg, 5 mg, 10 mg, 15 mg, 18 mg, 20 mg or 23 mg/mL γCD.
Approximately 50 mg of the melphalan flufenamide drug product (containing approximately 1 mg of melphalan flufenamide) was transferred to […] different 4 mL clear glass vials, followed by addition of 1 mL of a γCD working solution. The solutions were stirred for 5 minutes. The solutions were then filtered through a 0.45 μm PTFE filter. The filtrates were analysed by HPLC immediately after sample preparation (i.e. at t0), and then after 2 hours, 5 hours, 7 hours or 18 hours of storage at RT (approximately 23° C.).
HPLC analysis was performed using an Agilent 1260 series HPLC. Analyses were performed using a Poroshell column 3×50 mm EC-C18 column with a gradient of 5% to 97% acetonitrile, 0.1% formic acid over 3 min and a flow of 1 mL/min. An injection volume 0.2 μL was used. The melphalan flufenamide concentration in each sample was determined by HPLC analysis using a calibration curve for melphalan flufenamide.

[6] = Ex 1 lyophilised with HPγCD in different ratios: reconstitution and stability; type: physicochemical; conditions: HPγCD weight ratio 1:16, 1:20, 1:24 or 1:28, 20 hours at room temperature
Method: A 10 wt % solution of hydroxypropyl-γ-cyclodextrin (1750 mg) in t-BuOH/water 1:1 (15.75 g) and a 1:1 tBuOH/water solution were prepared. […] The solutions were lyophilized for 4 d.
The lyophilized material of entries 1 to 4 of Table 10 was reconstituted with 0.9% saline to make 0.5 mg/mL, 1.0 mg/mL and 2.0 mg/mL reconstituted solutions. The lyophilized material fully dissolved in each reconstituted solution. Portions of the 0.5 mg/mL, 1.0 mg/mL and 2.0 mg/mL reconstituted solutions were then diluted to 0.10 mg/mL in 0.9% saline (infusion concentration) and these 0.10 mg/mL solutions, and also a samples of the 0.5 mg/mL reconstituted solutions, were analyzed by HPLC after 0, 4 and 20 hours at room temperature.

[7] = Stability of lyophilised Ex 1-excipient mixtures in 5% glucose solution (HPLC); type: physicochemical; conditions: 25° C. to 30° C. for 22 hours
Method: The following excipients were used: trehalose dihydrate, sucrose, polysorbate 80, α-cyclodextrin, β-cyclodextrin, propylene glycol, 2-hydroxypropyl-β-cyclodextrin, and γCD.
(§2) A stock solution of each excipient was prepared in water (10 mg/mL). An aliquot of 400 μL (4 mg) of each stock solution was then transferred to a separate transparent 4 mL vial. The vials containing the stock solutions were then cooled and lyophilized using a Christ Alpha 2-4 LSC Plus instrument.
(§3) The mixtures were cooled and lyophilized overnight.
1 mL of a 5% glucose solution (w/v in water) containing 0.08 mg/mL 3-methoxybenzoic as an internal standard was added to each vial containing a lyophilized Ex 1-excipient mixture. The vials were then mixed by shaking for 15 seconds, and then shaken occasionally for 5 minutes. The solutions were transferred to Whatman® Mini-UniPrep® syringeless filters and filtered according to the manufacturer's instructions. The filtrate was transferred to a glass vial to prevent further dissolution. These filtrates represent the starting concentrations of melphalan flufenamide for each solution (i.e. the to samples). The to samples were analysed by HPLC as described below and then stored at 25° C. to 30° C. for 22 hours. […]

[8] = Solubility of Ex 1 in aqueous solution in the absence of an excipient; conditions: aqueous solution without excipient, water
[9] = Rate of dissolution of lyophilised Ex 1-excipient mixtures in 5% glucose solution, 15 seconds (HPLC); type: physicochemical; conditions: solution containing γCD
Method: as §2, §3
A 5% glucose solution (w/v in water) containing 0.08 mg/mL 3-methoxybenzoic as an internal standard was added to each vial containing a lyophilized Ex 1-excipient mixture. The vials were then mixed by shaking for 15 seconds. Approximately half of the solution was then transferred to a Whatman® Mini-UniPrep© syringeless filter and filtered according to the manufacturer's instructions. The filtrate was immediately transferred to a glass vial to prevent further dissolution.
HPLC analysis of each sample was performed using the same method as described in Example 1.

[10] = Stability of Ex 1 / Ex 2 propylene glycol liquid formulations diluted in γCD saline or glucose solution; type: physicochemical
Method: Stock solutions containing 16 mg/mLγCD in […].
The samples were mixed by vortex for 10 seconds and then filtered through a 0.45 μm PTFE filter. The filtrates were analysed by HPLC immediately after sample preparation (i.e. at t0), and then after 2 hours, 5 hours, 7 hours or 18 hours of storage at RT (approximately 23° C.).

For `CCOC(=O)[C@H](Cc1ccc(F)cc1)NC(=O)[C@@H](N)Cc1ccc(N(CCCl)CCCl)cc1` [melphalan flufenamide, ethyl (2S)-2-[[(2S)-2-amino-3-[4-[bis(2-chloroethyl)amino]phenyl]propanoyl]amino]-3-(4-fluorophenyl)propanoate], the “average decrease of melflufen flufenamide content” value ([1]; saline infusion solution with hydroxypropyl-γCD) was “about 4%”, the “average decrease of melflufen flufenamide content” value ([1]; saline infusion solution without HPγCD) was “about 40%” and the reconstitution concentration [2] was “up to 3.0 mg/mL”. The “decrease of melphalan flufenamide content relative to t0” value ([3]; control infusion solution without γCD, 43 hours at 5° C.) was “approximately 10%”, the “decrease of melphalan flufenamide content” value ([3]; 24 hours at 5° C.) was “approximately 7%” and the “decrease of melphalan flufenamide content” value ([3]; 24 hours at 5° C., listed as melflufen flufenamide) was “about 5%”. For the same molecule, the degradation rate ([3]; saline infusion solution comprising γCD, 5° C.) was “about 1 % per 24 hours”, the “decrease of melflufen flufenamide content” value ([3]; saline infusion solution not comprising γCD, 48 hours at 5° C.) was “about 8%” and the “decrease of melflufen flufenamide content” value ([3]; saline infusion solution with γCD, 24 hours at 5° C.) was “about 1%”. For the same molecule, the “decrease of melflufen flufenamide content” value ([3]; saline infusion solution with γCD, 48 hours at 5° C.) was “about 2%”, the “melphalan flufenamide content retained” value ([4]; 0.2 mg/mL, HPγCD weight ratio 1:20, 1:24, 1:28, 1:32, 1:36 or 1:40, 18 hours at room temperature) was “over 78%” and the “melphalan flufenamide content retained” value ([4]; 0.2 mg/mL, HPγCD weight ratio 1:20 to 1:40, 18 hours in a fridge) was “over 93%”. The “melphalan flufenamide content retained” value ([4]; aqueous solution, HPγCD about 36:1 w/w, 18 hours at room temperature) was 87%, the “stabilisation by γCD” value ([5]; 1 to 23 equivalents of γCD (w/w), up to 18 hours) was “stabilised” and the “stability by γCD ratio” value ([5]; 15, 18 and 23 equivalents of γCD (w/w)) was “most stable”. The “melphalan flufenamide content retained” value ([6]; 0.1 mg/mL) was “over 80%” and the “melphalan flufenamide content retained” value ([6]; 0.5 mg/mL) was over 90%.

For `CCOC(=O)[C@H](Cc1ccc(F)cc1)NC(=O)[C@@H](N)Cc1ccc(N(CCCl)CCCl)cc1` [Ex 1, melphalan flufenamide hydrochloride], the “decrease of melphalan flufenamide content relative to t0” value ([7]; solution with γCD) was 31%, the “Ex 1 remaining in solution” value ([7]; γCD 5% glucose solution, γCD:melphalan flufenamide about 4:1 w/w) was 69% and the solubility [8] was under 400 µg/mL. For the same molecule, the “Ex 1 remaining” value ([2]; lyophilised with HPγCD 1:67 w/w, reconstituted 3.0 mg/mL, diluted to 0.10 mg/mL in 0.9% saline, 17 hours at room temperature) was 91%, the reconstitution concentration ([2]; hydrochloride) was 3.0 mg/mL and 3 mg/mL and the “Ex 1 dissolved within the first 15 seconds of mixing” value [9] was 68%.

With `[2H]C([2H])([2H])C([2H])([2H])OC(=O)[C@H](Cc1ccc(F)cc1)NC(=O)[C@@H](N)Cc1ccc(N(CCCl)CCCl)cc1` [Ex 2, (^2H5)ethyl (2S)-2-[(2S)-2-amino-3-{4-[bis(2-chloroethyl)amino]phenyl}propanamido]-3-(4-fluorophenyl)propanoate hydrochloride] the “stability of Ex 2 in control solutions” value ([10]; 6% propylene glycol and saline only or 6% propylene glycol and 5% glucose only) was “poor stability” and the “stability of Ex 2 in the presence of γCD” value ([10]; saline or 5% glucose solution, γCD about 16:1, 30:1, 80:1 w/w, hydrochloride) was “improved the stability”.
